Laboratory results taken from patent publication US4977172A, “Method of treating the symptoms of cognitive decline in an elderly patient employing (S)-3-ethyl-4-[(1-methyl-1H-imidazol-5-yl)-methyl]-2-oxazolidinone” (Warner-Lambert Company, priority 1989, dated 1990).

What was measured:
[1] = tested on: rat; assay: Increase in rate of stomach emptying (M1 active); type: in vivo; conditions: PO
Source text: (§1) Thus, the receptor binding selectivity of (S)-3-ethyl-4-[(1-methyl-1H-imidazol-5-yl)methyl]-2-oxazolidinone translates into pharmacologic specificity in the whole animal with M1 actions (stomach emptying) predominating over M2 actions (enhanced intestinal motility). […] Additionally, as shown in Table I in the central nervous system the compound increases neocortical arousal as measured by quantitative electroencephalography at doses below those required to increase local cortical blood flow in rats.

[2] = Oral availability and duration of action; conditions: in vivo
[3] = tested on: awake unanesthetized rat; assay: Heart rate in the awake unanesthetized rat; type: in vivo; conditions: increase = M1 response, decrease = M2 response
Source text: as §1

[4] = tested on: M1 receptors / M2 receptors; assay: M1/M2 receptor binding: transformed cells possessing only M1 receptors and heart tissue (M2 receptors)
Source text: On the basis of molecular biology techniques, five subtypes of muscarinic receptors have been identified. For an agent useful in the treatment of cognitive decline in a patient, the relevant receptors are M1 since they are predominantly localized in brain areas associated with memory and learning (cortex and hippocampus). For comparison, M2 receptors are predominantly localized in peripheral tissues (e.g. the heart). […] The ratio of M1/M2 is shown in Table I. (S)-3-Ethyl-4-[(1-methyl-1H-imidazol-5-yl)methyl]-2-oxazolidinone is 3-fold selective for M1receptors over M2 receptors

[5] = tested on: Male Long-Evans rats; assay: Neocortical arousal by quantitative electroencephalography (QEEG); type: in vivo; conditions: rat, 10.0, 32.0 and 100.0 mg/kg tested
Source text: The methodology for determining neocortical arousal in rats by quantitative electroencephalography (QEEG) is as follows:
Male Long-Evans rats weighing 350 to 500 g were surgically implanted with stainless steel electrodes screwed into the skull surface overlying the frontal and occipital cortex. Electrodes were secured to a plastic connector (Plastic Products Model MS-363) which was permanently attached to the skull surface with dental acrylic. Animals were given one week to recover from surgery before testing.
After recovery from surgery, QEEG was measured Briefly, animals were placed into sound attenuating chambers during the light cycles of the rats diurnal cycle. Animals were allowed two hours to habituate to these environments. Thereafter, EEG was recorded continuously for ten minutes before and two hours after drug administration. Every other one-second sample of EEG was converted from the time to the frequency domain using a fast fourier transformation (FFT). […] Mean power within the 0 to 4 (delta), 5 to 8 (theta), 9 to 15 (alpha), 16 to 25 (beta) Hz bands was calculated separately for each bandwidth. Total power within all bandwidths also was calculated. […]
Data from each bandwidth and total power were analyzed separately using nonparametric ranked analysis of variance (Kruskals-Wallis rank transformed analysis with repeated measures). […]

[6] = tested on: rat; assay: Increase in smooth muscle motility of the intestines (M2 active); type: in vivo; conditions: PO
Source text: as §1

[7] = tested on: central muscarinic antagonist and agonist binding sites, rat cerebral cortex tissue; assay: Receptor [3H]quinuclidinyl benzilate (RQNB) / [3H]cis-methyldioxalane (RCMD) binding, ratio of IC50 values; conditions: agonists ratio >=100, antagonists near 1, partial agonists between 1 and 100
Description: The biological activity of (S)-3-ethyl-4-[(1-methyl-1H-imidazol-5-yl)methyl]-2-oxazolidinone or a pharmaceutically acceptable salt thereof as an agent for the treatment of the symptoms of cognitive decline in an elderly patient including Alzheimer's disease was evaluated using a number of tests. The activity of the aforementioned compound or pharmaceutically acceptable salt thereof as a central muscarinic binding site agonist and antagonist was measured. Thus, in the Receptor [^3 H]Quinuclidinyl Benzilate Binding Assay (RQNB), described more fully by Watson, M., et al, Journal of Pharmacology and Experimental Therapeutics, 237, pages 411-418 (1986), rat cerebral cortex tissue is treated with radiolabeled quinuclidinyl benzilate, a known muscarinic binding site antagonist. The concentration of test compound required to inhibit 50% of the binding of this muscarinic antagonist is then determined. This procedure allows a determination of the affinity of the test compound for the central muscarinic antagonist site. […] The concentration of test compound required to inhibit 50% of the binding of this muscarinic agonist is then determined. […]

CCN1C(=O)OC[C@@H]1Cc1cncn1C [(S)-3-ethyl-4-[(1-methyl-1H-imidazol-5-yl)methyl]-2-oxazolidinone]
ED50 [1]: 1.6 mg/kg
duration of action [2]: reasonable duration of action
oral availability ([2]; po): good oral availability
effect on heart rate [3]: increases (an M1 response) rather than decreases (an M2 response) heart rate
selectivity for M1 receptors over M2 receptors ([4]; receptor binding): 3 fold
M1/M2 (RECEPTOR BINDING) ([4]; transformed cells with only M1 receptors vs heart tissue (M2)): 3.3
ELECTROENCEPHALOGRAPHY (ACTIVE DOSE RANGE, mg/kg, PO) [5]: 10-100 mg/kg
ED50 [6]: 13.1 mg/kg
RQNB/RCMD (ratio of IC50 values, muscarinic antagonist/agonist binding) [7]: 214
